Patent US20020041848A1, “Chemically Specific Imaging Of Tissue” (priority 1999, published 2002)

Experiments:
[1] = test system: lab rats; conditions: cited from earlier work
[2] = test system: human finger tip; conditions: in vivo, 5 min
Procedure: Raman spectra were collected from a human finger tip irradiated with a near-infrared laser beam using conventional equipment, including a light collection and analysis system. Test agents were applied to the finger tip and allowed to penetrate the tissue for 5 minutes before rinsing the finger tip with acetone.

[2H]O[2H] [D2O]
symptoms at about double the 10-15% body water replacement ([1]; lab rats, continuous regimen of D2O): severe | share of total body water weight replaced by D2O below which there are no signs of ingestion or poisoning ([1]; rat, in vivo): 10-15%

[2H]C([2H])([2H])C([2H])([2H])C([2H])([2H])C([2H])([2H])C([2H])([2H])C([2H])([2H])C([2H])([2H])C([2H])([2H])C([2H])([2H])C([2H])([2H])C([2H])([2H])C([2H])([2H])C([2H])([2H])C([2H])([2H])C([2H])([2H])C([2H])([2H])C([2H])([2H])C(=O)O [stearic acid-d35]
depth of penetration indicated by persistence of peak near 2200 cm^-1 [2]: 1-2 mm
